According to US12354130B2, “Combination therapies” (Genentech, Inc., priority 2012, dated 2025):
Read-outs that look alike come from different tables or passages of the source.

Columns and labels:
[1] = cited from earlier work
[2] = test system: patients with BRAF^V600 mutation-positive, unresectable locally advanced or metastatic melanoma
Text: This multicenter study has 2 stages: a dose-escalation stage and a cohort-expansion stage.
Key inclusion criteria include the presence of the V600E mutation in melanoma tumor tissue using the Cobas® 4800 BRAF V600 mutation test, measurable disease per Response Evaluation Criteria in Solid Tumors (RECIST) v1.1, ECOG PS of ≤1, and adequate hematologic and end organ function as assessed through key laboratory measures. Patients were excluded if they had: ocular pathology or risk factors that predisposes to retinal vein occlusion; QTc>450 ms; or active CNS metastasis. Patients treated with stereotactic radiation therapy or surgery were eligible if stable for >3 weeks prior to treatment.
Each treatment cycle was 28 days.
Dose-escalation used the standard 3+3 design and proceeded in increments, taking into account the safety and tolerability of the combination.
Eligible patients had BRAF^V600-mutated unresectable or metastatic melanoma, and ECOG PS 0-1. Patients were either naïve to vemurafenib or had disease progression on vemurafenib. The study consisted of dose-escalation and expansion stages. […] Primary endpoints were maximum tolerated dose (MTD), dose-limiting toxicity (DLT) of both drugs, safety, and PK.

[3] = test system: unresectable or metastatic melanoma that is BRAFV600E mutation-positive; details: cited from earlier work
[4] = cited from earlier work; remark: listed apart in the source
[5] = during combination treatment, as of 6 Jul. 2012
[6] = compared with dacarbazine (Chapman et al. 2011)

SMILES	single-agent MTD ([1]; 21/7 schedule) [mg]	dose-limiting toxicity event ([2]; cohort 1 (vemurafenib 720 mg BID+GDC-0973 60 mg QD 14/14), led to discontinuation of vemurafenib)	dose-limiting toxicity event ([2]; cohort 1D)	discontinuation of the drug because of QT interval prolongation [2, 5] [patient]	primary dose reduction of the drug because of LFT abnormality [2, 5] [patient]	primary dose reduction of the drug because of central serous retinopathy [2, 5] [patient]	primary dose reduction of the drug because of rash [2, 5] [patient]	temporary interruption of the drug because of arthralgia [2, 5] [patients]	temporary interruption of the drug because of liver function test (LFT) abnormalities [2, 5] [patients]	temporary interruption of the drug because of rash [2, 5] [patients]	response rates ([3]; Flaherty 2010, Chapman 2011, Sosman 2012)	decrease in the risk of disease progression or death [3, 6] [%]	reduction in the risk of death [3, 6] [%]	dissolution rate of the amorphous form as compared to the crystalline form [4]	solubility in water of the amorphous form as compared with the crystalline form [4]	single-agent MTD ([1]; in vivo) [mg BID]
O=C(c1ccc(F)c(F)c1Nc1ccc(I)cc1F)N1CC(O)([C@@H]2CCCCN2)C1 [GDC-0973, [3,4-difluoro-2-[(2-fluoro-4-iodophenyl)amino]phenyl][3-hydroxy-3-[(2S)-2-piperidinyl]-1-azetidinyl]methanone]	60															
CCCS(=O)(=O)Nc1ccc(F)c(C(=O)c2c[nH]c3ncc(-c4ccc(Cl)cc4)cc23)c1F [vemurafenib, propane-1-sulfonic acid {3-[5-(4-chlorophenyl)-1H-pyrrolo[2,3-b]pyridine-3-carbonyl]-2,4-difluoro-phenyl}-amide]		Grade 3 QT prolongation	Grade 3 arthralgia	1	1	1	1	3	3	8	greater than 50%	74	63	improved dissolution rate	greater solubility in water	960
